Assay results as given in US20230390228A1, “TREATMENT METHODS USING GHB” (Jazz Pharmaceuticals Ireland Limited, priority 2020, published 2023).

How the values were obtained:
narcolepsy = settings: in vivo; cited from earlier work
[1] = tested on: patients with fibromyalgia; assay: Randomized, double-blind, placebo-controlled fibromyalgia study (Example 1), analysed by baseline slow wave sleep (Example 2); format: in vivo, human; settings: for response to oxybate (dose dependence) / change from baseline in Fibromyalgia Impact Questionnaire (FIQ) / change from baseline in pain visual analog scale (PVAS): FIG. 1; for change from baseline in Fibromyalgia Impact Questionnaire (FIQ) / change from baseline in pain visual analog scale (PVAS): Xyrem 4.5 g or 6 g/night vs placebo, 8 weeks
Description: This study was a randomized, double-blind, placebo-controlled, parallel group study in subjects diagnosed with fibromyalgia.
The ACR criteria included: presence of widespread pain for more than 3 months in all 4 quadrants of the body as well as along the spine and the elicitation of pain at 11 or more out of 18 anatomically defined tender points upon palpation with a force of 4 kg.
Subjects underwent screening assessments. Subjects who met the eligibility criteria underwent a drug withdrawal and washout period during which time pain medications and any treatment for fibromyalgia were gradually withdrawn. At the end of the 2-week baseline assessment period, subjects who continued to meet inclusion/exclusion criteria and who reported an average pain score above 4 (on a visual analog scale [VAS] of 0 to 10) during the last week of the baseline period were randomized to 1 of 3 treatment groups: Xyrem 4.5 g/night, Xyrem 6 g/night, or placebo (half of the subjects randomized to placebo received placebo matching 4.5 g and the other half received placebo matching 6 g).
Test Product, Dose, Mode of Administration, and Duration of Treatment: • Sodium oxybate 4.5 g, oral solution (9 mL) taken in 2 equally divided doses (4.5 mL added to 2 oz water) each night for 8 weeks. • Sodium oxybate 6 g, oral solution (12 mL) taken in 2 equally divided doses (6 mL added to 2 oz of water) each night for 8 weeks.
Reference Therapy, Dose and Mode of Administration: • Placebo (sodium citrate solution) 4.5 g, oral solution (9 mL) matching volume of Xyrem 4.5 g, taken in 2 equally divided doses (4.5 mL added to 2 oz water) each night. • Placebo (sodium citrate solution) 6 g, oral solution (12 mL) matching volume of Xyrem 6 g, taken in 2 equally divided doses (6 mL added to 2 oz water) each night.
The primary efficacy parameter was a binary composite parameter for the treatment of fibromyalgia syndrome. The proportion of subjects in each treatment group that met all 3 of the following response criteria was compared to assess the efficacy of Xyrem in response to fibromyalgia syndrome. • Pain Severity: as assessed by pain VAS data recorded 3 time a day by the subject in an electronic diary (eDiary). For pain VAS, a response was defined as a reduction in average pain of 20% or greater from baseline to Week 8. • Functionality (Fibromyalgia Impact Questionnaire [FIQ]): Change from baseline to a study visit was assessed. A response was defined as a reduction of 20% or greater in FIQ total score from baseline to Week 8. • Patient Global Impression of Change (PGIc): The subject's perception of the overall improvement in their fibromyalgia symptoms was assessed by means of the PGIc questionnaire completed at the end of study. A response to treatment was defined as a response of “Very much better” or “Much better” on the PGIc.
Severity of Pain: the mean change from baseline to a study visit in pain severity (VAS pain). The proportion of responders for pain, defined as the proportion of subjects who had at least 20% reduction in pain severity from baseline to a study visit.
Fibromyalgia Impact Questionnaire: The mean change from baseline to a study visit in FIQ total score and subscale scores. The proportion of FIQ responders, defined as the proportion of subjects who had at least a 20% reduction in FIQ total score from baseline to a study visit.
Subjective Assessments of Sleep and Fatigue: • Daytime Sleepiness: the mean change from baseline to a study visit in the Epworth Sleepiness Scale (ESS). • Sleep Patterns: the mean change from baseline to a study visit in the Jenkins Scale (JS). • Fatigue: the mean change from baseline to a study visit in the fatigue VAS score. • Functional Outcomes of Sleep Questionnaire (FOSQ): the mean changes from baseline to a study visit in FOSQ total score and subscale scores. […]

brain = settings: in vivo; cited from earlier work
[2] = biological target: GABA-ketoglutarate transaminase (Homo sapiens, UniProt P80404); settings: cited from earlier work
[3] = tested on: narcolepsy patients with cataplexy; settings: cited from earlier work
[4] = patients with less than about 1% slow wave sleep at baseline or screening
[5] = patients with ≥20% slow wave sleep prior to treatment

Chain of GABA-ketoglutarate transaminase (P80404 29-500): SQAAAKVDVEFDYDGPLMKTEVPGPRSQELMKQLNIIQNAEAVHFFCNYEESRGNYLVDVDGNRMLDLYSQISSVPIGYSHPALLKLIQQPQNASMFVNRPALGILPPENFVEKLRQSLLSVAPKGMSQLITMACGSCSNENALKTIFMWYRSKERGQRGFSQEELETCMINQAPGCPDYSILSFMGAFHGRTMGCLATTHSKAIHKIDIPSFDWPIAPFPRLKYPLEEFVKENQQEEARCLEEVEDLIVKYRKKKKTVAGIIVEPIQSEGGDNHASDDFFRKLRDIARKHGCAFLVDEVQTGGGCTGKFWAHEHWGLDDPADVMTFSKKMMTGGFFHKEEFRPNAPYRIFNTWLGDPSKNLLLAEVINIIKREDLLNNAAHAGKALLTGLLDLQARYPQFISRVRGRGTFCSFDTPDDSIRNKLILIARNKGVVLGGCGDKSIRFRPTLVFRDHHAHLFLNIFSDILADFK

In the case of O=C(O)CCCO [oxybate, Gamma-hydroxybutyrate], the REM latency (narcolepsy) is given as “decreases”, the REM sleep (narcolepsy) is given as “increases” and the “signs and symptoms of narcolepsy (daytime sleepiness, cataplexy, sleep paralysis, hypnagogic hallucinations)” value (narcolepsy) is given as “substantially reduces”. The sleep apnea (narcolepsy) was “reduces”, the total sleep time (narcolepsy) was “increases” and the “oxybate response (FIQ, Pain VAS, Fatigue VAS, TPC)” value ([1]; low baseline slow wave sleep (quartile 1), FIG. 3A-3D) was “improved oxybate response”. For the same molecule, the “response to oxybate (dose dependence)” value [1, 4] was “dose-dependent response”, the “change from baseline in Fibromyalgia Impact Questionnaire (FIQ)” value [1, 4] was “significant improvements” and the “change from baseline in pain visual analog scale (PVAS)” value [1, 4] was “significant improvements”. For the same molecule, the “response to oxybate (dose dependence)” value [1, 5] was “did not exhibit a dose-dependent response”, the “change in FIQ from baseline” value ([1]; slow wave sleep quartile 1 (<13.5 min stage 3/4 sleep at baseline), 4.5 g and 6.0 g Xyrem vs placebo, FIG. 3A) was “significant improvements” and the “change in Fatigue VAS from baseline” value ([1]; slow wave sleep quartile 1 (<13.5 min stage 3/4 sleep at baseline), 4.5 g and 6.0 g Xyrem vs placebo, FIG. 3C) was “significant improvements”. For the same molecule, the “change in Tender Points Count (TPC) from baseline” value ([1]; slow wave sleep quartile 1 (<13.5 min stage 3/4 sleep at baseline), 4.5 g and 6.0 g Xyrem vs placebo, FIG. 3D) was “significant improvements”, the brain acetylcholine (brain) was “increases” and the brain dopamine (brain) was “increases”. The “glucose utilization in the brain” value (brain) was “depression” and the “inhibition of GABA-ketoglutarate transaminase” value [2] was “inhibition”.

In the case of O=C(O)CCCO [sodium oxybate], the “change from baseline in Fibromyalgia Impact Questionnaire (FIQ)” value [1, 5] is listed as “did not differ significantly”, the “change from baseline in pain visual analog scale (PVAS)” value [1, 5] is listed as “did not differ significantly” and the “consolidation of REM sleep” value [3] is listed as “increased”. For the same molecule, the “duration of slow wave sleep” value [3] was “increased” and the “number of sleep arousals” value [3] was “decreased”.
